Laboratory results taken from patent US20250288704A1, “CXCR4-LIGANDS FOR DIAGNOSTIC AND THERAPEUTIC USE AND PRECURSORS THEREOF” (priority 2021, published 2025).
Read-outs that look alike come from different tables or passages of the source. Non-standard residues stand in square brackets, D forms with d. Residues, ends and D or L forms follow the SMILES beside them. Groups on a side chain read outwards from the residue. *: point of attachment. 2Nal = N[C@@H](Cc1ccc2ccccc2c1)C(=O)O; dNMeOrn = CN[C@H](CCCN)C(=O)O; 4Abz = Nc1ccc(C(=O)O)cc1; X1 = NCCNCC(CNCCN)C(=O)*; dDap = NC[C@@H](N)C(=O)O

Legend:
[1] = tested on: CXCR4-expressing Chem_1 cells; assay: Determination of internalization, dual tracer with 125I-Fc-131; format: cell-based; conditions: for Cell-bound [%] / Internalized [%]: of total cellular activity
Procedure, shortened: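 Receptor blockade used AMD3100 (1 mM stock) versus medium-treated wells, triplicate per time point, in Chem_1 cells cultured at 37 °C in DMEM-F12/10% FBS. Activity of supernatant, surface-bound and internalized (1 M NaOH) fractions measured by γ-counter, corrected for non-specific uptake and normalised to standard ligand.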

[2] = Octanol/PBS partition coefficient (logD7.4); format: physicochemical; conditions: n-octanol/PBS pH 7.4, radiolabeled compound
Method: The tubes were vortexed at maximum speed for 3 min to ensure equilibrium before centrifugation at 15.000×g for 5 min on a Biofuge 15 from Heraeus Holding GmbH (Osterode, Germany). An aliquot of 100 μL of each fraction was measured in the γ-counter and the log D7.4 calculated as follows: […]

U2932 cells [3] = conditions: 10, 20, 40, 100 nM, 24-96 h
Method: (§1) Two cell lines were selected for the respective experiments. The B-cell lymphoma cell line U2932 and the higher CXCR4 expressing lymphoblast-like Raji cell line. Both cell lines were incubated with the PDC for 24, 48, 72 and 96 hours in varying concentrations of 0 (Blank), 10, 20, 40 and 100 nM.

U2932 cells [4] = conditions: 72 h, increasing amounts of PDC
Method: For that purpose, cells were fixed, permeabilized and treated with propidium iodide. The number of cells in the G0/G1-, S— and G2/M-phase was then measured with regards to the amount of PDC used.

CXCR4 [5] = molecular target: T1, CXCR4 (Homo sapiens, UniProt P61073); assay: Determination of IC50: competition with 125I-Fc-131 on CXCR4-positive Jurkat cells; format: binding; parameters: CXCR4-positive Jurkat T lymphocyte cells were grown in Gibco's RPMI 1640 GlutaMAX medium; endogenous in cells; host or cells: Jurkat T lymphocyte cells (whole cells in suspension, 400.000 per tube);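 further: test compound at 10^−5 to 10^−11 M competed for 2 h at 8 °C with the radioligand on 400,000 cells per well, bound versus free activity measured by γ-counting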
T1 sequence (P61073 whole entry): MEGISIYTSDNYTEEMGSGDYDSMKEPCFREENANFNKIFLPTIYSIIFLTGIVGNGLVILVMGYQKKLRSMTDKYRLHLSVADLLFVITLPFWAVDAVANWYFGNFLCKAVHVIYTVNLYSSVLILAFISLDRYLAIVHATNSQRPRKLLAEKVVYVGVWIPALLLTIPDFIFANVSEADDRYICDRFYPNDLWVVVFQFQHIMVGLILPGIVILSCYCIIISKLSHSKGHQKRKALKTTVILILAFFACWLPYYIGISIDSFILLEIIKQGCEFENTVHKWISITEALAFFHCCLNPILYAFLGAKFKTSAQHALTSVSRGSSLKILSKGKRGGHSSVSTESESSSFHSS

[6] = Biodistribution in Jurkat tumor-bearing CB-17 SCID mice; format: in vivo; conditions: female, CB-17 SCID, mouse, in vivo, iv, total radioactivity, 1 h p.i., Jurkat xenograft, CB-17 SCID female mice
Procedure, shortened: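 Radioligand (125I, 177Lu, 99mTc, 18F or 68Ga label; roughly 0.5-20 MBq, 0.02-0.20 nmol) was injected intravenously via tail vein. Hosts were CB17-SCID mice with subcutaneous Jurkat tumors of 5-8 mm, 4-10 weeks post-inoculation. Dissected organs were weighed and counted in a γ-counter.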

[7] = Method: The radiosynthesis of [^99mTc]CXCR4-Tc-14 was performed manually, as described in chapter 4.2.3 above. Images were acquired after injection of 430-604 MBq of [^99mTc]CXCR4-Tc-14 at 5 min to 21 h p.i. Details of the scanning procedure are set out below.
Clinical evaluation of [^99mTc]CXCR4-Tc-14 in patients was conducted under compassionate use in compliance with the German Medicinal Products Act, AMG § 13 2b, and in accordance with the responsible authorities (Government of Oberbayern). First proof-of-concept studies were performed at the Universitätsklinikum Augsburg (Augsburg, Germany).
All subjects were examined on a Discovery MN CT 670 Pro equipped with an Optima 540 CT (GE Healthcare, Solingen, Germany). Full-body SPECT/CT scans at 5 and 60 min after tracer injection were acquired with a scanning speed of 30 cm/min, scans at 120 and 300 min were acquired with a scanning speed of 12 cm/min and scans at 21 h were acquired with a scanning speed of 5 cm/min. The scans were obtained in 60 subsets using the double-head technology in matrices of 128×128 (zoom 1). SPECT scans at 60 and 180 min after tracer injection were acquired with an exposure time of 8 sec per subset and scans at 21 h were acquired with an exposure time of 16 sec per subset. Emission data were smoothed applying a Butterworthfilter (0.48) and reconstructed iteratively by an ordered-subsets expectation maximization algorithm (2 iterations, 10 subsets). Images were obtained after injection of 430-604 MBq of [^99mTc]CXCR4-Tc-14 at 5 min to 21 h p.i.
The specific and effective doses in selected organs were analyzed. For calculation of the doses, voxels of interest were defined around areas with increased uptake in full-body images. Time-activity curves for the respective organs were automatically determined and the residence time of the tracer calculated using the specific calibration of the SPECT camera and a standard activity value. The residence time was used as the input data for the Olinda/EXM software. The output of this calculation was referred to the dosimetry guideline of the International Commission on Radiological Protection.

CXCR4 [8] = molecular target: T1, CXCR4; assay: Determination of inverse IC50 (invIC50): radiolabeled peptide displaced by Fc-131 on Jurkat cells; conditions: read-out: invIC50; radiolabeled compound displaced by Fc-131, Jurkat cells
Method: For in vitro experiments, cells were counted in a hemocytometer using trypan blue as contrast agent. The cell suspension was centrifuged, and the pellet resuspended in HBSS (+1 wt % BSA) to a concentration of 2 mio cells/mL. 8×3 polystyrene tubes were loaded with 25 μL of the standard ligand ^125I-Fc-131 (see 4.1, 1.00 nM in HBSS) and 25 μL of the ligand to investigate in the respective concentration (10^−4-10^−10 M, n=3 for each concentration). 200 μL of cell suspension (400.000 cells per well) were added to obtain a final peptide concentration range of 10^−5-10^−11 M. The tubes were cooled for 2 h at 8° C. to prevent internalization. The experiment was stopped by removal of the supernatant. 200 μL HBSS were added onto the cells, the suspension centrifuged, and the supernatant pooled with the respective first fractions. This step was repeated once more before the tubes containing the supernatants and the ones containing the cell pellets were subjected to activity measurement in the γ-counter.
For the determination of inverse IC50 (invIC50) values the protocol for the determination of regular IC50 values was resumed with minor changes. The peptide under investigation was radioactively labeled and a stock solution was prepared in HBSS (2.00 nM). A concentration gradient of the standard ligand Fc-131 was prepared in HBSS (10^−4-10^−10 M). A cell tube was then containing 25 μL of the radioactive peptide solution, 25 μL of the respective Fc-131 solution and 200 μL cell suspension (400.000 cells). The experiment was conducted as described above.

[9] = patient, multiple myeloma, 604 MBq

Method for Raji cells: as §1

CC[C@H](C)[C@@H]([C@@H](CC(=O)N1CCC[C@H]1[C@H](OC)[C@@H](C)C(=O)N[C@H](C)C(O)c1ccccc1)OC)N(C)C(=O)[C@@H](NC(=O)[C@H](C(C)C)N(C)C(=O)OCc1ccc(NC(=O)[C@H](CCCNC(N)=O)NC(=O)[C@@H](NC(=O)CCCCCN2C(=O)CC(SCC[C@@H](N)C(=O)NC(CCCNC(=N)N)C(=O)N[C@H](C)C(=O)Nc3ccc(C(=O)NCCC[C@@H]4C(=O)N[C@@H](CCCNC(=N)N)C(=O)N[C@H](Cc5ccc6ccccc6c5)C(=O)NCC(=O)N[C@@H](Cc5ccc(O)cc5)C(=O)N4C)cc3)C2=O)C(C)C)cc1)C(C)C (stereo partly drawn) [CXCR4-MMAE-2]
Internalization 2 h [% of bound peptide] ([1]; 2 h, 125I-labeled): 27.9 ± 1.14 % of bound peptide
logD7.4 [2]: 1.11 ± 0.08 (5)
fraction of dead cells (Raji cells; 96 h, 10, 20 and 40 nM, Raji vs U2932): considerably higher fraction of dead Raji cells compared to the U2932 cells
cell viability (Raji cells; Raji cells, 10, 20, 40, 100 nM, 24-96 h): decreased cell viabilities
cell viability (U2932 cells [3]): decreased cell viabilities
cells in G2/M-phase (U2932 cells [4]): higher number of cells stuck in the G2/M-phase
IC50 (CXCR4 [5]): 42.6 ± 8.3 nM

C[C@@H](NC(=O)[C@@H](CCCNC(=N)N)NC(=O)[C@@H](CN)NC(=O)C(CNCCN)CNCCN)C(=O)Nc1ccc(C(=O)NCCC[C@@H]2C(=O)N[C@@H](CCCNC(=N)N)C(=O)N[C@@H](Cc3ccc4ccccc4c3)C(=O)NCC(=O)N[C@H](Cc3ccc(O)cc3)C(=O)N2C)cc1 [Tc-CXCR4-14] (cyclo([dY][dNMeOrn]([4Abz-dA-dR-dDap-X1])R[2Nal]G))
Internalized in relation to 125I-Fc-131 [%] ([1]; 10 min): 486 ± 18.9%
Cell-bound [%] ([1]; 10 min): 0.67 ± 0.14%
Internalized [%] ([1]; 10 min): 17.9 ± 0.59%
Internalized in relation to 125I-Fc-131 [%] ([1]; 30 min): 683 ± 51.3%
Cell-bound [%] ([1]; 30 min): 1.56 ± 0.41%
Internalized [%] ([1]; 30 min): 30.2 ± 0.74%
Internalized in relation to 125I-Fc-131 [%] ([1]; 60 min): 742 ± 45.2%
Cell-bound [%] ([1]; 60 min): 0.91 ± 0.14%
Internalized [%] ([1]; 60 min): 36.4 ± 0.20%
Internalization [% Fc-131] ([1]; 120 min): 666 (120 min) % Fc-131
Internalized in relation to 125I-Fc-131 [%] ([1]; 120 min): 694 ± 42.5%
Cell-bound [%] ([1]; 120 min): 1.11 ± 0.48%
Internalized [%] ([1]; 120 min): 37.9 ± 0.56%
Internalization (in % of 125I-FC-131) ([1]; time not given): 742%
logD7.4 ([2]; listed as [^99mTc]CXCR4-Tc-14): −1.75
tissue uptake at 1 h ([6]; Blood, read-out: % iD/g Blood): 1.62 %ID/g
tissue uptake at 1 h ([6]; Bone, read-out: % iD/g Bone): 1.31 %ID/g
tissue uptake at 1 h ([6]; Heart, read-out: % iD/g Heart): 1.21 %ID/g
tissue uptake at 1 h ([6]; Intestine, read-out: % iD/g Intestine): 0.92 %ID/g
tissue uptake at 1 h ([6]; Liver, read-out: % iD/g Liver): 7.67 %ID/g
tissue uptake at 1 h ([6]; Lung, read-out: % iD/g Lung): 3.99 %ID/g
tissue uptake at 1 h ([6]; Pancreas, read-out: % iD/g Pancreas): 0.56 %ID/g
tissue uptake at 1 h ([6]; Stomach, read-out: % iD/g Stomach): 1.97 %ID/g
tissue uptake at 1 h ([6]; Tumor, read-out: % iD/g Tumor): 8.63 %ID/g
delivered whole-body dose ([7]; 604 MBq injected): 3.8 mSv
whole-body effective dose ([7]; patient, multiple myeloma): 6.3 μSv/MBq
specific dose, kidneys [7, 9]: 10 μGy/MBq
specific dose, liver [7, 9]: 14 μGy/MBq
specific dose, osteogenic cells [7, 9]: 13 μGy/MBq
specific dose, red bone marrow [7, 9]: 11 μGy/MBq
specific dose, spleen [7, 9]: 47 μGy/MBq
IC50 (CXCR4 [8]): 10.2 nM
